Reference: US11491148B2, “Amide derivatives useful in the treatment of HBV infection or HBV-induced diseases” (Janssen Sciences Ireland Unlimited Company, priority 2019, dated 2022)
Structures can show the parent of a compound that is named as a salt. Where two headings read alike, the source gives them in different places.

Assays:
[1] = test system: HBV; test: Anti-HBV activity, intracellular HBV DNA by real-time PCR (HBV-AVE-HepG2.117); format: cell-based, Hepatitis B virus; details: read-out: HBV-AVE-HepG2.117 EC50 (μM; mean value)
Protocol: The anti HBV activity was measured using the HepG2.117 cell line, a stable, inducible HBV producing cell line, which replicates HBV in the absence of doxicycline (Tet-off system). The HepG2 cell line is available from ATCC®) under number HB-8065. Transfection of the HepG2 cell line can be as described in Sun and Nassal 2006 Journal of Hepatology 45 (2006) 636-645 “Stable HepG2- and Huh7-based human hepatoma cell lines for efficient regulated expression of infectious hepatitis B virus”.
For the antiviral assay, HBV replication was induced, followed by a treatment with serially diluted compound in 96-well plates. After 3 days of treatment, the antiviral activity was determined by quantification of intracellular HBV DNA using real-time PCR and an HBV specific primer set and probe.

[2] = Cytotoxicity, ATPlite cell viability (TOX-HepG2.117); format: cell-based, human; details: human; HepG2.117 cells, incubated for 3 days, ATPlite, mean value
Protocol: Cytotoxicity of the compounds was tested using HepG2 or HepG2.117 cells, incubated for 3 days in the presence of compounds. The viability of the cells was assessed using the Perkin Elmer ATPlite Luminescence Assay System.”

[3] = Hepatitis B virus, HepG2.117, 72 h, HepG2.117 cell line, 3 days of treatment, intracellular HBV DNA, mean value
[4] = Hepatitis B virus, HepG2.117, 72 h

## C[C@H]1[C@@H](C(=O)Nc2cc(F)c(F)c(F)c2)CCN1C(=O)C(=O)N[C@]1(c2c[nH]nn2)C[C@H](C(F)F)C1 [C39c]
[1]; [3]
  EC50: 0.062 µM
[2]
  CC50 at 3 days: > 50 µM

## C[C@H]1[C@@H](C(=O)Nc2cc(F)c(F)c(F)c2)CCN1C(=O)C(=O)N[C@H](CC(F)(F)F)c1c[nH]nn1 (single isomer, unassigned) [C29R*]
[1]; [3]
  EC50: 0.014 µM
[2]
  CC50 at 3 days: > 50 µM

## C[C@H]1[C@@H](C(=O)Nc2cc(F)c(F)c(F)c2)CCN1C(=O)C(=O)NC1(c2c[nH]nn2)CC(F)(F)C1 [C3, (2S,3S)-1-[{[3,3-Difluoro-1-(1H-1,2,3-triazol-4-yl)cyclobutyl]amino}(oxo)acetyl]-2-methyl-N-(3,4,5-trifluorophenyl)pyrrolidine-3-carboxamide]
[1]; [4]
  EC50: 0.011 µM
[2]
  CC50 at 3 days: > 50 µM

## C[C@H]1[C@@H](C(=O)Nc2ccc(F)c(C(F)(F)F)c2)CCN1C(=O)C(=O)N[C@H](CC(F)(F)F)c1c[nH]nn1 (single isomer, unassigned) [C30R*]
[1]; [3]
  EC50: 0.037 µM
[2]
  CC50 at 3 days: > 50 µM

## C[C@H]1C[C@H](C(=O)Nc2cc(F)c(F)c(F)c2)[C@H](C)N1C(=O)C(=O)NC1(c2c[nH]nn2)CC(F)(F)C1 [C35]
[1]; [3]
  EC50: 0.011 µM
[2]
  CC50 at 3 days: > 50 µM

## N#Cc1cc(NC(=O)[C@H]2CCN(C(=O)C(=O)NC3(c4c[nH]nn4)CC(F)(F)C3)C2)ccc1F [C1, (3S)—N-(3-Cyano-4-fluorophenyl)-1-[{[3,3-difluoro-1-(1H-1,2,3-triazol-4-yl)cyclobutyl]amino}(oxo)acetyl]pyrrolidine-3-carboxamide]
[1]; [3]
  EC50: 0.15 µM
[2]
  CC50 at 3 days: > 50 µM

## Cc1cc(NC(=O)[C@H]2CCN(C(=O)C(=O)NC3(c4c[nH]nn4)CC(F)(F)C3)[C@H]2C)cc(F)c1F [C27]
[1]; [3]
  EC50: 0.012 µM
[2]
  CC50 at 3 days: > 50 µM

## C[C@H]1C[C@H](C(=O)Nc2cc(F)c(F)c(F)c2)[C@H](C)N1C(=O)C(=O)NC(CC(F)(F)F)c1c[nH]nn1 (stereo partly drawn) [C36]
[1]; [3]
  EC50: < 0.01 µM
[2]
  CC50 at 3 days: > 50 µM

## C[C@H]1[C@@H](C(=O)Nc2cc(F)c(F)c(Br)c2)CCN1C(=O)C(=O)NC1(c2c[nH]nn2)CC(F)(F)C1 [C21, (2S,3S)—N-(3-bromo-4,5-difluorophenyl)-1-(2-((3,3-difluoro-1-(1H-1,2,3-triazol-4-yl)cyclobutyl)amino)-2-oxoacetyl)-2-methylpyrrolidine-3-carboxamide]
[1]; [4]
  EC50: 0.012 µM
[2]
  CC50 at 3 days: > 50 µM

## C[C@H]1C[C@H](C(=O)Nc2cc(F)c(F)c(F)c2)CN1C(=O)C(=O)NC1(c2c[nH]nn2)CC(F)(F)C1 [C19]
[1]; [3]
  EC50: 0.019 µM
[2]
  CC50 at 3 days: > 50 µM

## C[C@H]1[C@@H](C(=O)Nc2ccc(F)c(Cl)c2)CCN1C(=O)C(=O)N[C@H](CC(F)(F)F)c1c[nH]nn1 (single isomer, unassigned) [C34R*]
[1]; [3]
  EC50: 0.003 µM
[2]
  CC50 at 3 days: > 50 µM

## C[C@@H]1CN(C(=O)C(=O)NC2(c3c[nH]nn3)CC(F)(F)C2)C[C@H]1C(=O)Nc1cc(F)c(F)c(F)c1 [C9]
[1]; [3]
  EC50: 0.204 µM
[2]
  CC50 at 3 days: > 50 µM

## C[C@H]1[C@@H](C(=O)Nc2cc(F)c(F)c(F)c2)CCN1C(=O)C(=O)N[C@](C)(CC(F)F)c1c[nH]nn1 (single isomer, unassigned) [C33R*]
[1]; [3]
  EC50: 0.034 µM
[2]
  CC50 at 3 days: > 50 µM

## C[C@H]1[C@@H](C(=O)Nc2cc(F)c(F)c(Cl)c2)CCN1C(=O)C(=O)NC1(c2c[nH]nn2)CC(F)(F)C1 [C16]
[1]; [3]
  EC50: 0.006 µM
[2]
  CC50 at 3 days: > 50 µM

## N#Cc1cc(NC(=O)[C@H]2CCN(C(=O)C(=O)NC3(c4c[nH]nn4)CC(F)(F)C3)C2)ccc1F [C1•HCl, (3S)—N-(3-Cyano-4-fluorophenyl)-1-[{[3,3-difluoro-1-(1H-1,2,3-triazol-4-yl)cyclobutyl]amino}(oxo)acetyl]pyrrolidine-3-carboxamide hydrochloride]
[1]; HepG2.117 cell line, 3 days of treatment, intracellular HBV DNA, mean value, hydrochloride
  EC50: 0.27 µM

## C[C@H]1[C@@H](C(=O)Nc2ccc(F)c(C(F)F)c2F)CCN1C(=O)C(=O)N[C@H](CC(F)(F)F)c1c[nH]nn1 (single isomer, unassigned) [C31R*]
[1]; [3]
  EC50: 0.021 µM
[2]
  CC50 at 3 days: > 50 µM

## C[C@H]1C[C@H](C(=O)Nc2ccc(F)c(C#N)c2)CN1C(=O)C(=O)NC1(c2c[nH]nn2)CC(F)(F)C1 [C13]
[1]; [3]
  EC50: 0.061 µM
[2]
  CC50 at 3 days: > 50 µM

## O=C(NC1(c2c[nH]nn2)CC(F)(F)C1)C(=O)N1CC[C@H](C(=O)Nc2ccnc(C(F)F)c2)C1 [C12]
[1]; [3]
  EC50: 1.29 µM
[2]
  CC50 at 3 days: > 50 µM

## C[C@H]1[C@@H](C(=O)Nc2ccc(Cl)c(Cl)c2)CCN1C(=O)C(=O)N[C@H](CC(F)(F)F)c1c[nH]nn1 (single isomer, unassigned) [C25R*]
[1]; [3]
  EC50: 0.017 µM
[2]
  CC50 at 3 days: 25.7 µM

## C[C@H]1[C@@H](C(=O)Nc2ccc(F)c(C(F)F)c2F)CCN1C(=O)C(=O)N[C@@H](CC(F)(F)F)c1c[nH]nn1 (single isomer, unassigned) [C31S*]
[1]; [3]
  EC50: 0.056 µM
[2]
  CC50 at 3 days: > 50 µM

## C[C@H]1[C@@H](C(=O)Nc2ccc(F)c(F)c2F)CCN1C(=O)C(=O)NC1(c2c[nH]nn2)CC(F)(F)C1 [C22]
[1]; [3]
  EC50: 0.026 µM
[2]
  CC50 at 3 days: > 50 µM

## C[C@H]1[C@@H](C(=O)Nc2ccc(F)c(Cl)c2F)CCN1C(=O)C(=O)N[C@@H](CC(F)(F)F)c1c[nH]nn1 (single isomer, unassigned) [C37S*]
[1]; [3]
  EC50: 0.043 µM
[2]
  CC50 at 3 days: > 50 µM

## Cc1cc(NC(=O)[C@H]2CCN(C(=O)C(=O)NC3(c4c[nH]nn4)CC(F)(F)C3)[C@H]2C)cc(Cl)c1F [C24]
[1]; [3]
  EC50: 0.012 µM
[2]
  CC50 at 3 days: > 50 µM

## C[C@H]1[C@@H](C(=O)Nc2cc(F)c(F)c(Cl)c2)CCN1C(=O)C(=O)N[C@@H](CC(F)(F)F)c1c[nH]nn1 (single isomer, unassigned) [C32S*]
[1]; [3]
  EC50: 0.031 µM
[2]
  CC50 at 3 days: > 50 µM

## C[C@H]1[C@@H](C(=O)Nc2cc(F)c(F)c(F)c2)CCN1C(=O)C(=O)N[C@]1(c2c[nH]nn2)C[C@@H](C(F)F)C1 [C39t]
[1]; [3]
  EC50: 0.033 µM
[2]
  CC50 at 3 days: > 50 µM

## C[C@H]1[C@@H](C(=O)Nc2cc(F)c(F)c(F)c2)CCN1C(=O)C(=O)N[C@@H](CC(F)(F)F)c1c[nH]nn1 (single isomer, unassigned) [C29S*]
[1]; [3]
  EC50: 0.042 µM
[2]
  CC50 at 3 days: > 50 µM

## C[C@H]1[C@@H](C(=O)Nc2ccc(Cl)c(Cl)c2)CCN1C(=O)C(=O)N[C@@H](CC(F)(F)F)c1c[nH]nn1 (single isomer, unassigned) [C25S*]
[1]; [3]
  EC50: 0.074 µM
[2]
  CC50 at 3 days: > 50 µM

## C[C@H]1[C@@H](C(=O)Nc2ccc(F)c(Cl)c2)CCN1C(=O)C(=O)N[C@@H](CC(F)(F)F)c1c[nH]nn1 (single isomer, unassigned) [C34S*]
[1]; [3]
  EC50: 0.035 µM
[2]
  CC50 at 3 days: > 50 µM

## O=C(NC1(c2c[nH]nn2)CC(F)(F)C1)C(=O)N1CC[C@H](C(=O)Nc2ccc(F)c(Cl)c2)C1 [C5, (3S)—N-(3-Chloro-4-fluorophenyl)-1-[{[3,3-difluoro-1-(1H-1,2,3-triazol-4-yl)cyclobutyl]amino}(oxo)acetyl]pyrrolidine-3-carboxamide]
[1]; [4]
  EC50: 0.04 µM
[2]
  CC50 at 3 days: > 50 µM

## C[C@H]1[C@@H](C(=O)Nc2ccc(F)c(C(F)(F)F)c2)CCN1C(=O)C(=O)NC1(c2c[nH]nn2)CC(F)(F)C1 [C18]
[1]; [3]
  EC50: 0.012 µM
[2]
  CC50 at 3 days: > 50 µM

## C[C@H]1[C@@H](C(=O)Nc2ccc(F)c(C(F)F)c2F)CCN1C(=O)C(=O)NC1(c2c[nH]nn2)CC(F)(F)C1 [C14]
[1]; [3]
  EC50: 0.019 µM
[2]
  CC50 at 3 days: > 50 µM

## O=C(NC1(c2c[nH]nn2)CC(F)(F)C1)C(=O)N1CC[C@H](C(=O)Nc2cc(F)c(F)c(F)c2)C1 [C4, (3S)-1-[{[3,3-Difluoro-1-(1H-1,2,3-triazol-4-yl)cyclobutyl]amino}(oxo)acetyl]-N-(3,4,5-trifluorophenyl)pyrrolidine-3-carboxamide]
[1]; [3]
  EC50: 0.053 µM
[2]
  CC50 at 3 days: > 50 µM

## C[C@H]1[C@@H](C(=O)Nc2cc(F)c(F)c(F)c2)CCN1C(=O)C(=O)NC1(c2nn[nH]c2Cl)CC(F)(F)C1 [C26]
[1]; [3]
  EC50: 0.176 µM
[2]
  CC50 at 3 days: > 50 µM

## Cc1cc(NC(=O)[C@H]2CCN(C(=O)C(=O)NC3(c4c[nH]nn4)CC(F)(F)C3)C2)ccc1F [C2, (3S)-1-[{[3,3-Difluoro-1-(1H-1,2,3-triazol-4-yl)cyclobutyl]amino}(oxo)acetyl]-N-(4-fluoro-3-methylphenyl)pyrrolidine-3-carboxamide]
[1]; [3]
  EC50: 0.079 µM
[2]
  CC50 at 3 days: > 50 µM

## O=C(NC1(c2c[nH]nn2)CC(F)(F)C1)C(=O)N1CC[C@H](C(=O)Nc2ccc(Cl)c(Cl)c2)C1 [C7]
[1]; [3]
  EC50: 0.1 µM
[2]
  CC50 at 3 days: > 50 µM
